Target: recombinant human UAE (Homo sapiens (Human), UniProt P22314)
Experiment: Ubiquitin Activating Enzyme (UAE) HTRF Assay
Details: read-out: % inhibition @0.111 μM
Experimental: After incubation for 120 minutes, quantification of the FRET is performed on the Pherostar (BMG).
For compounds whose values are marked with an asterisk (*), mouse UAE was used. For all other compounds, human UAE was used.

Chain of recombinant human UAE (P22314 whole entry): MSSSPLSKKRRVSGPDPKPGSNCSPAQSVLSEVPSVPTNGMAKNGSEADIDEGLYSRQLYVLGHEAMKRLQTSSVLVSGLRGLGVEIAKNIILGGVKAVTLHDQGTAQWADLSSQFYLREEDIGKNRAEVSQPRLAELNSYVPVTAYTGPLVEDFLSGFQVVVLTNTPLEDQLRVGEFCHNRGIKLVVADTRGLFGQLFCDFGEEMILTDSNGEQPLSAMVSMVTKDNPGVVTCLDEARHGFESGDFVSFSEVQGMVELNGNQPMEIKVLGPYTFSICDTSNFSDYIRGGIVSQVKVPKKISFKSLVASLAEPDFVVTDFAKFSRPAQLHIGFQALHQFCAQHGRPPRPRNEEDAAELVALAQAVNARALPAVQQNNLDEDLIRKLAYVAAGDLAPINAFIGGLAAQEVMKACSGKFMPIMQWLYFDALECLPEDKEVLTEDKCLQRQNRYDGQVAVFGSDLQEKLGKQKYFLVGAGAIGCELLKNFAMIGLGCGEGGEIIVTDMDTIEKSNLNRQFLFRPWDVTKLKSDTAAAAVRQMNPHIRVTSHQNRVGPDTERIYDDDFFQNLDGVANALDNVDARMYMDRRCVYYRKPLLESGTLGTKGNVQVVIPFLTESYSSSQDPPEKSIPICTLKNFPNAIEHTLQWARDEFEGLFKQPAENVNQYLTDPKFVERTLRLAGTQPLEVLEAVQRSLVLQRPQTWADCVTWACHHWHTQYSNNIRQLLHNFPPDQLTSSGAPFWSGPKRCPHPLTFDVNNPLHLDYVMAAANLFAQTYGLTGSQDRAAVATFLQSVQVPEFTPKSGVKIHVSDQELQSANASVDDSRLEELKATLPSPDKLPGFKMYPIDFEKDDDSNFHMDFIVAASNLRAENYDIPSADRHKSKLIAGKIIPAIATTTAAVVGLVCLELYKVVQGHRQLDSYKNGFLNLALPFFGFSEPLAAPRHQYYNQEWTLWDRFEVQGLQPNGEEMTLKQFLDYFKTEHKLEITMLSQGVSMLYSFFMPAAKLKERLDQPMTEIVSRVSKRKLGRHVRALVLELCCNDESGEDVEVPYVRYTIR

Compound: NS(=O)(=O)OC[C@H]1C[C@@H](Nc2ccnc3cc(-c4ccnc(C(F)(F)F)c4)nn23)[C@H](O)[C@@H]1O (relative stereo) [Compound I-059, (rac)-((1R,2R,3S,4R)-2,3-dihydroxy-4-(2-(2-(trifluoromethyl)pyridin-4-yl)pyrazolo[1,5-a]pyrimidin-7-ylamino)cyclopentyl)methyl rel-sulfamate]
- inhibition at 0.111 µM: 94%

Compound: NS(=O)(=O)OC[C@H]1C[C@@H](Nc2ccnc3cc(-c4ccc5ccccc5n4)nn23)[C@H](O)[C@@H]1O (relative stereo) [Compound I-042, (rac)-((1R,2R,3S,4R)-2,3-dihydroxy-4-(2-(quinolin-2-yl)pyrazolo[1,5-a]pyrimidin-7-ylamino)cyclopentyl)methyl rel-sulfamate]
- inhibition at 0.111 µM: 100%

Compound: NS(=O)(=O)OC[C@H]1C[C@@H](Nc2ccnc3cc(-c4cccc5sccc45)nn23)[C@H](O)[C@@H]1O (relative stereo) [Compound I-061, (rac)-((1R,2R,3S,4R)-4-((2-(Benzo[b]thiophen-4-yl)pyrazolo[1,5-a]pyrimidin-7-yl)amino)-2,3-dihydroxycyclopentyl)methyl rel-sulfamate]
- inhibition at 0.111 µM: 100%

Compound: NS(=O)(=O)OC[C@H]1C[C@@H](Nc2ccnc3cc(-c4cc(Cl)ccc4OC(F)(F)F)nn23)[C@H](O)[C@@H]1O (relative stereo) [Compound I-057, (rac)-((1R,2R,3S,4R)-4-(2-(5-chloro-2-(trifluoromethoxy)phenyl)pyrazolo[1,5-a]pyrimidin-7-ylamino)-2,3-dihydroxycyclopentyl)methyl rel-sulfamate]
- inhibition at 0.111 µM: 100%

Compound: NS(=O)(=O)OC[C@H]1C[C@@H](Nc2ccnc3cc(-c4cccc5cccnc45)nn23)[C@H](O)[C@@H]1O (relative stereo) [Compound I-017, (rac)-((1R,2R,3S,4R)-2,3-Dihydroxy-4-((2-(quinolin-8-yl)pyrazolo[1,5-a]pyrimidin-7-yl)amino)cyclopentyl)methyl rel-sulfamate]
- inhibition at 0.111 µM: 100%

Compound: COc1ccc(SC(F)(F)F)cc1-c1cc2nccc(N[C@@H]3C[C@H](COS(N)(=O)=O)[C@@H](O)[C@H]3O)n2n1 [Compound I-120, (s.e.)-((1R,2R,3S,4R)-2,3-dihydroxy-4-(2-(2-methoxy-5-(trifluoromethylthio)-phenyl)pyrazolo[1,5-a]pyrimidin-7-ylamino)cyclopentyl)methyl sulfamate]
- inhibition at 0.111 µM: 100%

Compound: NS(=O)(=O)OC[C@H]1C[C@@H](Nc2cc(Cl)nc3cc(-c4ccccc4)nn23)[C@H](O)[C@@H]1O (relative stereo) [Compound I-006, (rac)-{(1R,2R,3S,4R)-4-[(5-chloro-2-phenylpyrazolo[1,5-a]pyrimidin-7-yl)amino]-2,3-dihydroxycyclopentyl}methyl rel-sulfamate]
- inhibition at 0.111 µM: 23%

Compound: NS(=O)(=O)OC[C@H]1C[C@@H](Nc2ccnc3cc(-c4ccc5[nH]ccc5c4)nn23)[C@H](O)[C@@H]1O (relative stereo) [Compound I-074, (rac)-[(1R,2R,3S,4R)-2,3-dihydroxy-4-{[2-(1H-indol-5-yl)pyrazolo[1,5-a]pyrimidin-7-yl]amino}cyclopentyl]methyl rel-sulfamate]
- inhibition at 0.111 µM: 98%

Compound: NS(=O)(=O)OC[C@H]1C[C@@H](Nc2ccnc3cc(-c4cccc5ccsc45)nn23)[C@H](O)[C@@H]1O (relative stereo) [Compound I-045, (rac)-((1R,2R,3S,4R)-4-((2-(Benzo[b]thiophen-7-yl)pyrazolo[1,5-a]pyrimidin-7-yl)amino)-2,3-dihydroxycyclopentyl)methyl rel-sulfamate]
- inhibition at 0.111 µM: 100%

Compound: CCOC(C)(C)c1cccc(-c2cc3nccc(N[C@@H]4C[C@H](COS(N)(=O)=O)[C@@H](O)[C@H]4O)n3n2)c1 (relative stereo) [Compound I-084, (rac)-((1R,2R,3S,4R)-4-(2-(3-(2-ethoxypropan-2-yl)phenyl)pyrazolo[1,5-a]pyrimidin-7-ylamino)-2,3-dihydroxycyclopentyl)methyl rel-sulfamate]
- inhibition at 0.111 µM: 100%

Compound: CN(C)c1ccc(-c2cc3nccc(N[C@@H]4C[C@H](COS(N)(=O)=O)[C@@H](O)[C@H]4O)n3n2)c2ccccc12 [Compound I-107, (s.e.)-((1R,2R,3S,4R)-4-(2-(4-(dimethylamino)naphthalen-1-yl)pyrazolo[1,5-a]pyrimidin-7-ylamino)-2,3-dihydroxycyclopentyl)methyl sulfamate]
- inhibition at 0.111 µM: 100%

Compound: NS(=O)(=O)OC[C@H]1C[C@@H](Nc2ccnc3cc(-c4cccc5cnccc45)nn23)[C@H](O)[C@@H]1O (relative stereo) [Compound I-027, (rac)-((1R,2R,3S,4R)-2,3-dihydroxy-4-(2-(isoquinolin-5-yl)pyrazolo[1,5-a]pyrimidin-7-ylamino)cyclopentyl)methyl rel-sulfamate]
- inhibition at 0.111 µM: 100%

Compound: NS(=O)(=O)OC[C@H]1C[C@@H](Nc2ccnc3cc(-c4cccc(-c5ccccn5)c4)nn23)[C@H](O)[C@@H]1O (relative stereo) [Compound I-036, (rac)-((1R,2R,3S,4R)-2,3-Dihydroxy-4-((2-(3-(pyridin-2-yl)phenyl)pyrazolo[1,5-a]pyrimidin-7-yl)amino)cyclopentyl)methyl rel-sulfamate]
- inhibition at 0.111 µM: 100%

Compound: CC(C)(C)c1cccc(-c2cc3nccc(N[C@@H]4C[C@H](COS(N)(=O)=O)[C@@H](O)[C@H]4O)n3n2)c1 (relative stereo) [Compound I-015, (rac)-((1R,2R,3S,4R)-4-((2-(3-(tert-Butyl)phenyl)pyrazolo[1,5-a]pyrimidin-7-yl)amino)-2,3-dihydroxycyclopentyl)methyl rel-sulfamate]
- inhibition at 0.111 µM: 100%

Compound: NS(=O)(=O)OC[C@H]1C[C@@H](Nc2ccnc3cc(-c4ccc5ccccc5c4)nn23)[C@H](O)[C@@H]1O (relative stereo) [Compound I-016, (rac)-((1R,2R,3S,4R)-2,3-dihydroxy-4-(2-(naphthalen-2-yl)pyrazolo[1,5-a]pyrimidin-7-ylamino)cyclopentyl)methyl rel-sulfamate]
- inhibition at 0.111 µM: 99%

Compound: COc1ccc(OC(F)(F)F)cc1-c1cc2nccc(N[C@@H]3C[C@H](COS(N)(=O)=O)[C@@H](O)[C@H]3O)n2n1 [Compound I-102, (s.e)-[(1R,2R,3S,4R)-2,3-dihydroxy-4-({2-[2-methoxy-5-(trifluoromethoxy)-phenyl]pyrazolo[1,5-a]pyrimidin-7-yl}amino)cyclopentyl]methyl sulfamate]
- inhibition at 0.111 µM: 100%

Compound: C#Cc1cccc(-c2cc3nccc(N[C@@H]4C[C@H](COS(N)(=O)=O)[C@@H](O)[C@H]4O)n3n2)c1 (relative stereo) [Compound I-083, (rac)-[(1R,2R,3S,4R)-4-{[2-(3-ethynylphenyl)pyrazolo[1,5-a]pyrimidin-7-yl]amino}-2,3-dihydroxycyclopentyl]methyl rel-sulfamate]
- inhibition at 0.111 µM: 100%

Compound: NS(=O)(=O)OC[C@H]1C[C@@H](Nc2ccnc3cc(-c4cc5ccccc5o4)nn23)[C@H](O)[C@@H]1O (relative stereo) [Compound I-086, (rac)-((1R,2R,3S,4R)-4-(2-(benzofuran-2-yl)pyrazolo[1,5-a]pyrimidin-7-ylamino)-2,3-dihydroxycyclopentyl)methyl rel-sulfamate]
- inhibition at 0.111 µM: 99%

Compound: NS(=O)(=O)OC[C@H]1C[C@@H](Nc2ccnc3cc(-c4c[nH]c5ccccc45)nn23)[C@H](O)[C@@H]1O (relative stereo) [Compound I-032, (rac)-[(1R,2R,3S,4R)-2,3-dihydroxy-4-{[2-(1H-indol-3-yl)pyrazolo[1,5-a]pyrimidin-7-yl]amino}cyclopentyl]methyl rel-sulfamate]
- inhibition at 0.111 µM: 100%

Compound: Cn1cc(-c2cccc(-c3cc4nccc(N[C@@H]5C[C@H](COS(N)(=O)=O)[C@@H](O)[C@H]5O)n4n3)c2)cn1 (relative stereo) [Compound I-122, (rac)-[(1R,2R,3S,4R)-2,3-dihydroxy-4-({2-[3-(1-methyl-1H-pyrazol-4-yl)phenyl]pyrazolo[1,5-a]pyrimidin-7-yl}amino)cyclopentyl]methyl rel-sulfamate]
- inhibition at 0.111 µM: 97%

Compound: NS(=O)(=O)OC[C@H]1C[C@@H](Nc2ccnc3cc(-c4cccc(SCC5CC5)c4)nn23)[C@H](O)[C@@H]1O (relative stereo) [Compound I-076, (rac)-((1R,2R,3S,4R)-4-(2-(3-(cyclopropylmethylthio)phenyl)pyrazolo[1,5-a]pyrimidin-7-ylamino)-2,3-dihydroxycyclopentyl)methyl rel-sulfamate]
- inhibition at 0.111 µM: 100%

Compound: NS(=O)(=O)OC[C@H]1C[C@@H](Nc2ccnc3cc(-c4ccc5oc6ccccc6c5c4)nn23)[C@H](O)[C@@H]1O (relative stereo) [Compound I-019, (rac)-((1R,2R,3S,4R)-4-(2-(dibenzo[b,d]furan-2-yl)pyrazolo[1,5-a]pyrimidin-7-ylamino)-2,3-dihydroxycyclopentyl)methyl rel-sulfamate]
- inhibition at 0.111 µM: 100%

Compound: NS(=O)(=O)OC[C@H]1C[C@@H](Nc2ccnc3cc(-c4cc(F)c5ccccc5c4)nn23)[C@H](O)[C@@H]1O [Compound I-118, (s.e.)-((1R,2R,3S,4R)-4-(2-(4-fluoronaphthalen-2-yl)pyrazolo[1,5-a]pyrimidin-7-ylamino)-2,3-dihydroxycyclopentyl)methyl sulfamate]
- inhibition at 0.111 µM: 100%

Compound: NS(=O)(=O)OC[C@H]1C[C@@H](Nc2ccnc3cc(-c4cccc5c4sc4ccccc45)nn23)[C@H](O)[C@@H]1O (relative stereo) [Compound I-056, (rac)-((1R,2R,3S,4R)-4-((2-(Dibenzo[b,d]thiophen-4-yl)pyrazolo[1,5-a]pyrimidin-7-yl)amino)-2,3-dihydroxycyclopentyl)methyl rel-sulfamate]
- inhibition at 0.111 µM: 100%

Compound: COc1cc(F)ccc1-c1cc2nccc(N[C@@H]3C[C@H](COS(N)(=O)=O)[C@@H](O)[C@H]3O)n2n1 (relative stereo) [Compound I-070, (rac)-((1R,2R,3S,4R)-4-(2-(4-fluoro-2-methoxyphenyl)pyrazolo[1,5-a]pyrimidin-7-ylamino)-2,3-dihydroxycyclopentyl)methyl rel-sulfamate]
- inhibition at 0.111 µM: 99%

From patent US10202389B2, “Pyrazolopyrimidinyl inhibitors of ubiquitin-activating enzyme” (Millennium Pharmaceuticals, Inc., priority 2012, dated 2019)
